Assay results reported in patent US20160089346A1, “METHOD OF TREATMENT FOR BODY CONTOURING” (Neothetics, Inc., priority 2014, published 2016).

Tests used:
[1] = system: non-obese adult subjects with central abdominal bulging; experiment: Phase 2 RESET trial: adverse effects and tolerability; assay type: in vivo, human; details: for Any Adverse Event Definitely or Possibly Related to Study Drug (incidence): 20 SC injections once a week for 8 weeks
Procedure: (§1) Methods: A randomized, double-blind, placebo-controlled study was conducted to evaluate the safety and efficacy of a composition comprising the long-acting beta-2 receptor agonist salmeterol xinafoate. This study was reviewed and approved by a central IRB (Chesapeake IRB, Columbia, Md.) and written informed consent was received from all study subjects. The study enrolled 513 adult subjects with central abdominal bulging at 31 investigative sites across the U.S. Subjects were required to be non-obese (BMI<30 kg/m^2), have a focal area of central abdominal bulging due to excess subcutaneous fat (˜400 cm^2 area around the umbilicus), have adequate skin elasticity, have at least a rating of “slight bulge, not flat” on both the 5-point Patient- and Clinician-Global Abdominal Perception Scales (P-GAPS and C-GAPS) at Screening and Day 1, and who were at least slightly dissatisfied with their abdominal bulging in the treatment area. The P-GAPS includes the ratings: flat, almost flat, slight bulge/not flat, […].
(§2) Subjects were randomized to receive 1 of 3 doses of salmeterol xinafoate (0.4, 1.0, or 4.0 μg total weekly dose) or placebo (0.9% Sodium Chloride Injection, USP) once a week for 8 weeks starting on Day 1 after all entry criteria had been satisfied. Randomization was based on a computer-generated, site-based randomization schedule, which was distributed to authorized, unblinded personnel at each site. Twenty, 1 mL weekly subcutaneous (SC) injections administered via a ½ inch 30 gauge needle were spaced 4 cm apart on the anterior abdomen between axial planes at +35 mm and −70 mm, relative to the umbilicus. Consistent injection placement was assured by the weekly application of a water-based temporary tattoo defining the location of the 20 administration injection sites. Efficacy endpoints included a Patient- and Clinician-Global Abdominal Perception Scale, a Patient and Clinician Photonumeric Scale (PPnS and CPnS) and duplicate abdominal circumference measurements (taken at +35 mm, 0 and −70 mm, relative to the umbilicus, using a standardized tape measurement (e.g., laser-guided) procedure).
Demographics & Safety Results: Subjects enrolled in the study were primarily female (81%; 418/513), white (86%; 440/513), with a mean age of 38 (18−71) years and a mean BMI of 23.4 (18.2−29.9) kg/m^2. […] Ninety-two percent completed the study per protocol; 6 subjects (1%) were lost to follow-up, 4 subjects (<1%) were terminated for protocol violation, 10 subjects (2%) withdrew consent and 21 subjects (4%) withdrew for miscellaneous causes. […] The most frequently reported treatment-emergent adverse effects related to study drug were mild and transient injection site events, including hematoma, erythema, contusion, and pain. The incidence of these adverse effects is reported in Table 1 (a single incidence (<1%) of an adverse event was reported randomly across organ systems and all treatment groups and is not reported in the table). These injection site events occurred with a similar frequency in subjects in the placebo group and in the salmeterol xinafoate groups and were considered to be related to the typical mechanical trauma of an injection procedure rather than the study drug itself.

[2] = system: central abdominal bulging due to excess subcutaneous fat; experiment: Phase 2 RESET trial: abdominal circumference by laser-guided tape measure, and calculated abdominal volume; assay type: in vivo, human; details: 0.4 μg total weekly dose
Procedure: as §1, §2
A specific set of standardized instructions (e.g., patient positioning, posture, breathing, etc.) were followed for the collection of all ratings and measurements. Designated clinical site personnel were trained in person to perform each procedure; some procedures also included a training video. […] Specific to the laser-guided tape measure procedure, the reproducibility of the procedure beyond what is obtained with a standard manual tape measure was enhanced with the water-based tattoo on the anterior abdomen, a self-tensioning tape measure, a tripod-mounted laser level and electronic data capture to ensure the independent recording of circumferential measurements. Both the 5-point patient and clinician verbal scales (P-GAPS and C-GAPS) that assigned scores ranging from flat to big (or pronounced) bulge, as well as the 6-point patient and clinician photonumeric scales (PPnS and CPnS) that are a match-to-sample task in which an abdominal profile are selected from a series of 6 identical torsos with a progressively larger anterior abdominal bulge were specifically developed and validated to assess treatment effects in non-obese subjects with central abdominal bulging. Neither patients nor clinicians had access to the others' scale ratings and neither had access to previous scale scores. Final assessments on all outcome measures were performed 1 week after the last injections (Day 57±2 days).
All efficacy analyses used a repeated measures analysis of covariance (ANCOVA) model to determine differences between each active treatment group and placebo. […]

[3] = system: central abdominal bulging due to excess subcutaneous fat; experiment: Phase 2 RESET trial: patient and clinician rating scales (P-GAPS, C-GAPS, PPnS, CPnS), composite responders; assay type: in vivo, human; details: 0.4 μg total weekly dose
Procedure: as §1, §2
A specific set of standardized instructions (e.g., patient positioning, posture, breathing, etc.) were followed for the collection of all ratings and measurements. Designated clinical site personnel were trained in person to perform each procedure; some procedures also included a training video. […] Specific to the laser-guided tape measure procedure, the reproducibility of the procedure beyond what is obtained with a standard manual tape measure was enhanced with the water-based tattoo on the anterior abdomen, a self-tensioning tape measure, a tripod-mounted laser level and electronic data capture to ensure the independent recording of circumferential measurements. […]

[4] = compared with albuterol, a short-acting hydrophilic beta-adrenergic agonist; cited from earlier work
[5] = subjects weight neutral or lost weight (≦0 kg)

OCc1cc(C(O)CNCCCCCCOCCCCc2ccccc2)ccc1O (stereo not shown) [salmeterol xinafoate]
Injection Site Erythema (incidence) ([1]; 0.4 μg total weekly dose): 2%
Injection Site Hematoma (incidence) ([1]; 0.4 μg total weekly dose): 5%
Injection Site Hemorrhage (incidence) ([1]; 0.4 μg total weekly dose): 0%
Injection Site Pain (incidence) ([1]; 0.4 μg total weekly dose): 3%
Any Adverse Event Definitely or Possibly Related to Study Drug (incidence) ([1]; 0.4 μg total weekly dose): 11%
Injection Site Erythema (incidence) ([1]; 1.0 μg total weekly dose): 2%
Injection Site Hematoma (incidence) ([1]; 1.0 μg total weekly dose): 6%
Injection Site Hemorrhage (incidence) ([1]; 1.0 μg total weekly dose): 0%
Injection Site Pain (incidence) ([1]; 1.0 μg total weekly dose): 2%
Any Adverse Event Definitely or Possibly Related to Study Drug (incidence) ([1]; 1.0 μg total weekly dose): 12%
Injection Site Erythema (incidence) ([1]; 4.0 μg total weekly dose): 0%
Injection Site Hematoma (incidence) ([1]; 4.0 μg total weekly dose): 6%
Injection Site Hemorrhage (incidence) ([1]; 4.0 μg total weekly dose): 0%
Injection Site Pain (incidence) ([1]; 4.0 μg total weekly dose): 2%
Any Adverse Event Definitely or Possibly Related to Study Drug (incidence) ([1]; 4.0 μg total weekly dose): 12%
Tolerability ([1]; 0.4, 1.0 and 4.0 μg total weekly dose, 20 SC injections into abdominal adipose tissue once a week for 8 weeks): well tolerated
Significant adverse events during the study ([1]; all dose groups, 8 weeks): no significant adverse events
Change in abdominal volume from baseline ([2]; Day 57, all subjects, +35 mm to −70 mm relative to the umbilicus, placebo −90 mL, p=0.001): -192 mL
Mean change in abdominal circumference at the umbilicus from baseline ([2]; Day 57, all subjects, placebo −0.7 cm, p=0.001): −1.6 cm
Mean reduction in abdominal volume relative to placebo ([2]; all subjects): -102 mL
Mean reduction in umbilical circumference relative to placebo ([2]; all subjects): −0.9 cm
Mean reduction in abdominal volume from baseline [2, 5]: -329 mL
Mean reduction in abdominal volume relative to placebo [2, 5]: -175 mL
Mean reduction in umbilical circumference from baseline [2, 5]: −2.7 cm
Mean reduction in umbilical circumference relative to placebo [2, 5]: −1.6 cm
Dose comparison of efficacy across most outcome measures ([2]; lowest dose, 0.02 μg/mL): the most efficacious
Change from baseline across all rating instruments (P-GAPS, C-GAPS, PPnS, CPnS) [3]: consistent mean reductions from baseline
Composite responders (2-point improvement on P-GAPS and 2-point improvement on CPnS) compared to placebo [3]: significantly more responders
% composite responders (1-point improvement on P-GAPS and 2-point improvement on CPnS) ([3]; all subjects): 16%
% composite responders (1-point improvement on P-GAPS and 2-point improvement on CPnS) [3, 5]: 22%

OCc1cc(C(O)CNCCCCCCOCCCCc2ccccc2)ccc1O (stereo not shown) [salmeterol]
Lipophilicity relative to albuterol [4]: at least 10,000 times
